Assay results as given in patent EP0414688B1, “PROCESS FOR REGULATING THE ABSORPTION RATE OF DRUGS AND A PHARMACEUTICAL FORMULATION” (NEUVONEN, Pertti J., priority 1988, dated 1989).

Legend:
[1] = cross-over study of oral absorption with concomitant magnesium hydroxide; assay type: in vivo, test persons
Method: In persons having a poor absorption of fenamates the increase of peak concentrations of e.g. tolfenamic acid can be up to 10-fold through the action of magnesium hydroxide (fig. 4).
Since medicines are generally taken with water, the administration of pharmaceutical tablets in the above tests was immediately followed by 150 ml of water with magnesium hydroxide blended therein.

[2] = Pentikainen et al., European Journal of Clinical Pharmacology 1984; cited from earlier work

Compound: CC(C)Cc1ccc(C(C)C(=O)O)cc1 (stereo not drawn) [ibuprofen]
- rate of absorption ([1]; ibuprofen 400 mg (tabl. BURANA), concomitant ingestion of Mg-hydroxide): accelerated significantly

Compound: Cc1c(Cl)cccc1Nc1ccccc1C(=O)O [tolfenamic acid]
- increase of peak concentrations through the action of magnesium hydroxide ([1]; human, in vivo): up to 10 fold
- absorption from alimentary canal [2]: relatively slow
